Entries after “also recorded” stand apart in the source; their conditions may differ.
Experiments:
MMP-13 = MMP-13 (Homo sapiens, UniProt P45452); experiment: fluorimetric assay of MMP activity; type: biochemical; conditions: synthetic fluorescent peptide substrate Mca-Lys-Pro-Leu-Gly-Leu-Dpa-Ala-Arg-NH2
MMP-3 = MMP-3 (Homo sapiens, UniProt P08254); experiment: fluorimetric assay of MMP activity; type: biochemical; conditions: synthetic fluorescent peptide substrate Mca-Lys-Pro-Leu-Gly-Leu-Dpa-Ala-Arg-NH2
MMP-7 = target: T1, MMP-7 (Homo sapiens, UniProt P09237); experiment: fluorimetric assay of MMP activity; type: biochemical; conditions: synthetic fluorescent peptide substrate Mca-Lys-Pro-Leu-Gly-Leu-Dpa-Ala-Arg-NH2
T1 sequence (P09237 95-267): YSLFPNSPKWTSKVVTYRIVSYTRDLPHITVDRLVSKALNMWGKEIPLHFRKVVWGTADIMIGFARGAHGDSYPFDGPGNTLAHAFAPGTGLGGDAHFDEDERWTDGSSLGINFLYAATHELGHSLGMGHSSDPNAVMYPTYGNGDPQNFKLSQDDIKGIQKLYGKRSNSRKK

MMP-14 = MMP-14 (Homo sapiens, UniProt P50281); experiment: fluorimetric assay of MMP activity; type: biochemical; conditions: synthetic fluorescent peptide substrate Mca-Lys-Pro-Leu-Gly-Leu-Dpa-Ala-Arg-NH2
[1] = toxicity / tolerability in diabetic rats; type: in vivo
Description: The following five experimental groups (n=3 rats per group) were established: Non-diabetic control rats (NDC) treated by daily application of white petrolatum jelly (“vehicle”) for 7 days, diabetic rats (D group) treated daily with vehicle alone; diabetics treated by daily topical application of either a 1% (D+1%) or a 3% (D+3%) suspension of Compound 4 in the vehicle; and diabetics treated systemically by daily oral intubation of a 1 ml suspension of Compound 4 (in carboxymethylcellulose) at a dose of 30 mg/kg over the 7-day treatment protocol (D+30 mg/kg). At the end of this time period, the circular wounds were clinically assessed by measuring diameter of the wound in millimeters, blood samples were collected, the rats were sacrificed, and skin samples collected for histological/histochemical, and biochemical assessment as described below. • 1) On day 7 after inducing wound healing, the animals were anesthetized and blood samples collected for blood glucose (one Touch Ultra Glucometer; Johnson & Johnson, New Brunswick, N.J.) and Hemoglobin A1c (A1c Now+; Bayer Health Care, Sunnyvale, Calif.) measurements. • 2) Photographs were taken for clinical observations to assess wound closure. The % reduction of the wound surface was calculated by measuring the diameter (in millimeters) of each wound before and after the treatment protocol. • 3) Wound tissues on day 7 were excised from 3 sites per rat and pooled for biochemical analysis. […] The supernates were then dialyzed against the Tris-HCl, NaCl, CaCl2 buffer, and the proteinases partially purified by ammonium sulfate precipitation and examined for levels of MMP-2 (72 kD gelatinse) and MMP-9 (92 kD gelatinase) by gelatin zymography using denatured type I collagen (gelatin) as the substrate (6). • 4) The remaining wounds were assessed histologically & histochemically by Dr. Steve McClain (McClain Labs, Smithtown, N.Y.) as follows: Biopsies of each wound site were taken and included both the wound tissue and surrounding non-wounded tissue. […]

[2] = severity of hyperglycemia (blood glucose, HbA1c) in diabetic rats; type: in vivo, rat
Description: The following five experimental groups (n=3 rats per group) were established: Non-diabetic control rats (NDC) treated by daily application of white petrolatum jelly (“vehicle”) for 7 days, diabetic rats (D group) treated daily with vehicle alone; diabetics treated by daily topical application of either a 1% (D+1%) or a 3% (D+3%) suspension of Compound 4 in the vehicle; and diabetics treated systemically by daily oral intubation of a 1 ml suspension of Compound 4 (in carboxymethylcellulose) at a dose of 30 mg/kg over the 7-day treatment protocol (D+30 mg/kg). At the end of this time period, the circular wounds were clinically assessed by measuring diameter of the wound in millimeters, blood samples were collected, the rats were sacrificed, and skin samples collected for histological/histochemical, and biochemical assessment as described below. • 1) On day 7 after inducing wound healing, the animals were anesthetized and blood samples collected for blood glucose (one Touch Ultra Glucometer; Johnson & Johnson, New Brunswick, N.J.) and Hemoglobin A1c (A1c Now+; Bayer Health Care, Sunnyvale, Calif.) measurements. • 2) Photographs were taken for clinical observations to assess wound closure. […]

IL-1β = experiment: cytokine production by peritoneal macrophages of orally treated diabetic rats in culture; type: in vivo, rat; conditions: oral 30 mg/kg daily, 21 days, culture with or without P. gingivalis LPS
Description: (§1) Adult male Sprague-Dawley rats (body weight 300-350 g) were injected through the tail vein with either 0.9% saline (non-diabetic control) or with the same solution containing streptozotocin (70 mg/kg body weight) to induce diabetes. Non-diabetic rats served as normal controls. The diabetic rats were distributed into 2 experimental groups (3 rats per group). Urine glucose levels were measured weekly with Tes-Tape (Eli Lilly Inc.). One group of rats was treated by oral gavage of Compound 4 (30 mg/kg body weight) daily for 21 days; the Compound 4 was suspended in 2% carboxymethyl cellulose and polytron/homogenized. The normal & diabetic vehicle-treated (control) groups were oral gavaged with vehicle alone daily.
(§2) Rat peritoneal macrophages were harvested with 10 ml RPMI 4 days after intraperitoneal injection of 10 ml of thioglycolate (3% wt/vol). Macrophages were then purified by density gradient centrifugation (lymphoprep) and cell numbers were counted in a hemocytometer. The cells were then tested in a cell migration assay (Cell BioLabs, Inc, CytoSelect 96-well with 5 um fluorometric format) using conditioned medium containing inflammatory mediators including MCP-1 from LPS-macrophages as a chemoattractant. The macrophages from different groups of rats were also plated onto 24 well-plates with and without p.g.LPS challenge for 24 hours in 37° C., 5% CO2. […]

IL-6 = experiment: as above; type: in vivo, rat; conditions: oral 30 mg/kg daily, 21 days, culture with or without P. gingivalis LPS
Description: as §1, §2

peritoneal macrophages = experiment: cell migration (chemotaxis) assay of peritoneal macrophages; type: in vivo, rat; conditions: diabetic rats, oral 30 mg/kg daily, 21 days
Description: as §1, §2

collagen in wound tissue = experiment: collagen fractions (hydroxyproline) in wound tissue of diabetic rats; type: in vivo, rat; conditions: wound tissue day 6
Source text: Biochemical measurements were made on wound tissue 6 days after creating the standardized 6 mm diameter wounds in the various groups of rats including: (1) non-diabetic controls (NDC); (2) Diabetic (DM) rats treated topically with 0.25% curcumin; (3) DM treated with 1% curcumin; (4) DM treated with 0.25% Compound 4, and (5) DM rats treated with 1% Compound 4. The wound tissues from these five different groups were then hydrolyzed (after extraction; see below) to degrade the collagen to individual amino acids, and the amino acid unique to collagen, hydroxyproline, was measured by a commercial colorimetric assay. Prior to hydrolysis, the wound tissues were extracted (at 4° C. to maintain the triple-helical conformation of the collagen molecules) to obtain first the salt-soluble fraction, then the acid-soluble fraction, leaving the insoluble fraction.

contact dermatitis = experiment: poison ivy contact dermatitis on the arms of a human subject, topical; type: in vivo; conditions: Example 9
Source text: The leaves of a poison ivy plant are applied to equally sized areas of the left and right arms of a human subject.

Chain of MMP-3 (P08254 100-477): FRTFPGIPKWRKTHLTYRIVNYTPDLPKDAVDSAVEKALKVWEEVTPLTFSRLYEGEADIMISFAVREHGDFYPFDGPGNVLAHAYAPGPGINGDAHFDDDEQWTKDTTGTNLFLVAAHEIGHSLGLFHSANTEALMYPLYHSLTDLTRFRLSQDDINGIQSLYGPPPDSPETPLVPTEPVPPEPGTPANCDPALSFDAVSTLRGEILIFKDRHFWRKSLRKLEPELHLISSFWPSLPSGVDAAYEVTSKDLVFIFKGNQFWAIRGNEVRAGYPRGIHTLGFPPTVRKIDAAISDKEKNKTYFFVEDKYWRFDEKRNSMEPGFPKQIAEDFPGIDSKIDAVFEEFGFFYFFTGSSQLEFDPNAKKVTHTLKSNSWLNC

Q: With `O=C(/C=C/c1ccc(O)cc1)C(C(=O)/C=C/c1ccc(O)cc1)C(=O)Nc1ccccc1` [Compound 4, 1,7-Bis(4-hydroxyphenyl)-4-N-phenylaminocarbonylhepta-1E, 6E-dien-3,5-dione] as the compound, how does the IC50 (MMP-13) read?
A: 2.7 ± 0.7 µM

Q: And the IC50 (MMP-3)?
A: 2.9 ± 0.4 µM

Q: And the IC50 (MMP-7)?
A: 5 ± 0.7 µM

Q: And the IC50 (MMP-14)?
A: 15.3 ± 3.1 µM

Q: What about the toxic effects ([1]; 30 mg/kg body weight, diabetic rats) of the same compound?
A: virtually no toxic effects

Q: And the tolerability ([1]; topical (e.g. 1%) or systemic administration)?
A: well tolerated; also recorded: well tolerated and not toxic

Q: What about the “effect on severity of hyperglycemia” value ([2]; oral 30 mg/kg daily, 21 days) of the same compound?
A: did not affect the severity of hyperglycemia

Q: And the “effect on severity of hyperglycemia (blood glucose, HbA1c)” value ([2]; topical 1% or 3% or oral 30 mg/kg, 7 days)?
A: none of the topical or systemic treatments with Compound 4 demonstrated any effect

Q: What about the “IL-1β production by peritoneal macrophages” value (IL-1β) of the same compound?
A: decreased excessive inflammatory cytokine

Q: What about the “IL-6 production by peritoneal macrophages” value (IL-6) of the same compound?
A: decreased excessive inflammatory cytokine

Q: What about the macrophage chemotactic activity (peritoneal macrophages) of the same compound?
A: counteracted the suppression of macrophage chemotactic activity

Q: What about the “Collagen Fractions (%) Acid-soluble” value (collagen in wound tissue; 0.25% topical) of the same compound?
A: 41.7%

Q: And the “Collagen Fractions (%) Insoluble” value (collagen in wound tissue; 0.25% topical)?
A: 31.7%

Q: What about the “Collagen Fractions (%) Salt-soluble” value (collagen in wound tissue; 0.25% topical) of the same compound?
A: 26.6%

Q: And the “Collagen Fractions (%) Acid-soluble” value (collagen in wound tissue; 1% topical)?
A: 29.4%

Q: What about the “Collagen Fractions (%) Insoluble” value (collagen in wound tissue; 1% topical) of the same compound?
A: 40.5%

Q: And the “Collagen Fractions (%) Salt-soluble” value (collagen in wound tissue; 1% topical)?
A: 30.1%

Q: What about the “itching and healing of contact dermatitis compared with Compound 2” value (contact dermatitis) of the same compound?
A: stops itching sooner and heals quicker

— US20160355465A1, “NOVEL MODIFIED CURCUMINS AND THEIR USES” (THE RESEARCH FOUNDATION OF STATE UNIVERSITY OF NEW YORK, priority 2011, published 2016)
